target: T1, porcine pancreatic lipase (Sus scrofa, UniProt P00591); assay: Olive oil test: inhibition of porcine pancreatic lipase with respect to triglycerides in olive oil (pH-stat titration); format: biochemical; conditions: substrate olive oil emulsion, pH 9.0, 37.0° C., 10 minutes pre-incubation in ice bath; read-out: IC50, porcine pancreatic lipase-inhibiting action in vitro with respect to triglycerides in olive oil
T1 construct: lipase standard LS7 in accordance with the rules of the “Fédération Internationale Pharmaceutique” (=FIP) (porcine pancreatic lipase, 36,700 FIP units/g); host or cells: porcine pancreas
T1 sequence (P00591 1-450): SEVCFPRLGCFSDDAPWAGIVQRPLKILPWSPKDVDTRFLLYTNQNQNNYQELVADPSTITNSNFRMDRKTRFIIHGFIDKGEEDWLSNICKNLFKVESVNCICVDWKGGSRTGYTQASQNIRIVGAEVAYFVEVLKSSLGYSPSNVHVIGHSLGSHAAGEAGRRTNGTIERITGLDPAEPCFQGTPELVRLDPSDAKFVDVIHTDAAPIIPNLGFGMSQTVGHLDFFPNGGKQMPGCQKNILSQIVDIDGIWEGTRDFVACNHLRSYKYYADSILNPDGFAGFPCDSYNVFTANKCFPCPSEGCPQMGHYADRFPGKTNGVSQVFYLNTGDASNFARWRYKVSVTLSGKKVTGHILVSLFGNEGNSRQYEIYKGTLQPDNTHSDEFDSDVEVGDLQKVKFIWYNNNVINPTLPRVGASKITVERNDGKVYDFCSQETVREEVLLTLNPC
Method: In a heterogeneous reaction, the inhibition of the lipolytic action of porcine pancreatic lipase was determined under the influence of the test substances of Formula I with respect to the triglycerides contained in the test substrate olive oil. The fatty acids released by the lipase were titrated with sodium hydroxide solution to pH 9.0.
(§1) The reagents given below were prepared:
A. Gum Arabic Solution 10% (m/V)
200 g gum arabic (Acaciae gummi in accordance with the specifications of the German Pharmacopeia (=DAB)/European Pharmacopeia (=Ph.Eur.) was dissolved in 2000 ml ultrapure water with stirring and if necessary centrifugation. The solution was stored at −20° C. in plastic vessels of capacity of 250 ml. The amount required per day was thawed as required.
B. Sodium Taurocholate Solution 8% (m/V)
8 g sodium taurocholate (FIP) was dissolved in 100 ml ultrapure water.
60.6 mg Tris(hydroxymethyl)aminomethane p.a. (Merck, No. 8382) and 234 mg sodium chloride (p.a.) were dissolved in 100 ml ultrapure water.
D. 0.1 N Sodium Hydroxide Solution […]
1 ml lipase reference suspension was incubated with the respective amount of inhibitor solution for 10 minutes in an ice bath. […] The sodium hydroxide consumption between the 1st and the 5th minute was evaluated. […]

IC50 | Structure (SMILES)
17 nM | CCCCCC[C@@H]1C(=O)O[C@H]1CCCCCOC(=O)Nc1ccc(Oc2ccccc2)cc1 (relative stereo) [Example 1, trans-(3-hexyl-4-oxo-oxetan-2-yl)-pentyl-(phenoxyphenyl)-carbamate]

target: T1, porcine pancreatic lipase; assay: p-nitrophenyl palmitate (pNpp) test: inhibition of lipolytic action of porcine pancreatic lipase in vitro; format: biochemical; conditions: substrate p-nitrophenyl palmitate, 37° C., absorbance at 405 nm; read-out: IC50, porcine pancreatic lipase-inhibiting action in vitro with respect to pNpp
Method: 1. p-nitrophenyl Palmitate Test
In this test the inhibition of the lipolytic action of porcine pancreatic lipase with respect to the test substrate p-nitrophenyl palmitate(=pNpp) under the influence of the test substances of Formula I was determined. Therein, the change in the relative absorbance of the investigated solutions caused by the lipolytic release of p-nitrophenol from pNpp was measured.
as §1
To prepare a “solution A”, 45 mg pNpp was dissolved in 15 ml isopropanol by sonication with ultrasound. To prepare a “solution B”, 558 mg Na-deoxycholate dry substance and 67.5 mg gum arabic were dissolved in 135 ml 0.05 M sodium phosphate buffer (pH=8.0). 15 ml “solution A” was injected into 135 ml ice-cold “solution B” in […] of 1.25 ml with an Eppendorf hand dispenser with stirring at 400 rpm at the highest possible rate. The initial absorbance E1 when determining the blank reading was less than 0.250 U each time.
B. Sodium Chloride Solution 1% (mN)
10 g sodium chloride (NaCl, p.a.) was dissolved in 1000 ml ultrapure water.
C. Lipase Standard Solution (50 FIP units/ml)
120.8 mg lipase standard LS7 in accordance with the rules of the “Fédération Internationale Pharmaceutique” (=FIP) (porcine pancreatic lipase, 36,700 FIP units/g) was dissolved in 50 ml ice-cold sodium chloride solution (B) and filtered through a 0.2 μm syringe filter. 20 ml of the filtrate was diluted with […] sodium chloride solution (B) (corresponding to 50 FIP units/ml).
D. Lipase Calibration Solutions (10–20–30–40 FIP units/ml)
In each case 2–4–6–8 ml lipase standard solution (C) was made up to 10 ml with sodium chloride solution (B) and stored in an ice bath.
E. Lipase Stock Solution (40 FIP units/ml)
8 ml lipase standard solution was made up to 10 ml with sodium chloride solution (B) and stored in an ice bath.
The lipase-inhibitory compounds of Formula I were dissolved in DMSO. A dilution series of 100–0.1 nmol/ml was produced from this stock solution. 100 μl of these dilutions were used in the test. The dilutions were adapted such that the maximum residual activity of the lipase was >90%.
Measurement was effected at 37° C., and the absorbances were measured at a wavelength of 405 nm. The photometric measuring station comprised a photometer and an agitator (from Eppendorf). The photometer was adjusted to 0 U with water. At the start and end of the investigation series, in each case eight blank readings and one lipase calibration series were measured. For the blank readings, in each case 1 ml substrate solution was mixed with 100 μl DMSO, the mixture was shaken for 5 seconds and kept at a controlled temperature for 5 minutes. Then 100 μl sodium chloride solution (B) were added thereto by pipette and the mixture was shaken for a further 5 seconds. After 2 minutes, the increase in absorbance was detected for 4 minutes. The absorbance starting value E1 when determining the blank readings was in each case less than 0.250 U.
For the calibration, 1 ml substrate solution was placed in each of eight cuvettes, mixed with 100 μl DMSO, shaken for 5 seconds and kept at a controlled temperature for 5 minutes. The reaction was started with 100 μl calibration solution. After 2 minutes, the kinetics were detected for 4 minutes. Each concentration was measured twice.
For measuring the inhibitor solutions, 1 ml substrate solution was placed in each of eight cuvettes, mixed with 100 μl inhibitor solution, shaken for 5 seconds and then kept at a controlled temperature for 5 minutes. The reaction was started with 100 μl lipase stock solution. After 2 minutes, the kinetics were detected for 4 minutes. The inhibitor solutions and the lipase standard solution were each prepared immediately before the start of the investigation series. […]

IC50 | Structure (SMILES)
47 nM | CCCCCCC1C(=O)OC1CCCCCOC(=O)Nc1ccccc1 (mixture of isomers) [Example 2, cis/trans-5-(3-hexyl-4-oxo-oxetan-2-yl)pentyl-phenyl carbamate]
107 nM | CCCCCCC1C(=O)OC1CCCOC(=O)Nc1ccccc1 (racemic) [Example 7]
106 nM | CCCCCC[C@@H]1C(=O)O[C@H]1CCCCCOC(=O)Nc1ccc(Oc2ccccc2)cc1 (relative stereo) [Example 1, trans-(3-hexyl-4-oxo-oxetan-2-yl)-pentyl-(phenoxyphenyl)-carbamate]
187 nM | CCCCCCC1C(=O)OC1CCCCCOC(=O)NCc1ccccc1 (stereo not shown) [Example 8]
177 nM | CCCCCCC1C(=O)OC1CCCCCOC(=O)NC(=O)c1ccccc1 (stereo not shown) [Example 10]
28 nM | CCCCCCC1C(=O)OC1CCCCCOC(=O)NCCc1ccccc1 (stereo not shown) [Example 11]

The next lines start with the compound.

Structure (SMILES) | IC50
CCCCCCC1C(=O)OC1CCCCCOC(=O)NC(C)C (mixture of isomers) [Example 3, cis/trans-5-(3-hexyl-4-oxo-oxetan-2-yl)pentyl-isopropyl carbamate] | 88 nM
CCCCCC[C@@H]1C(=O)O[C@H]1CCCCCOC(=O)Nc1ccc(Oc2ccccc2)cc1 [Example 6, (2S,3S)-5-(3-hexyl-4-oxo-oxetan-2-yl)-pentyl-(4-phenoxyphenyl)-carbamate] | 113 nM
CCCCCCC1C(=O)OC1CCCCCOC(=O)Nc1ccc(OCC)cc1 (stereo not shown) [Example 9] | 67 nM
CCCCCCC1C(=O)OC1CCCCCOC(=O)Nc1ccc(Cl)c(Cl)c1 (stereo not shown) [Example 13] | 319 nM

tested on: pancreatic lipase; assay: Pancreatic lipase-inhibiting action of intermediates of Formula IVa (statement, no method given); format: biochemical; conditions: qualitative statement

Structure (SMILES) | action inhibiting pancreatic lipase
CCCCCCC1C(=O)OC1CCCCCOCc1ccccc1 (stereo not shown) [3-hexyl-4-[5(benzyloxy)pentyl}]oxetan-2-one] | exhibit an action inhibiting pancreatic lipase
CCCCCCC1C(=O)OC1CCCCCOC1CCCCO1 (stereo not shown) [3-hexyl-4-{5[(tetrahydro-2H-pyran-2-yl)oxy]pentyl}oxetan-2-one] | exhibit an action inhibiting pancreatic lipase

From US7074822B2, “Alkyl carbamate-substituted β-lactones, process for their preparation, and pharmaceutical compositions containing them” (Solvay Pharmaceuticals GmbH, priority 2004, dated 2006)
